The subject of assay [1] is IC patients. To be noted: intravesical DMSO therapy; cited from earlier work.
The subject of assay [2] is IC patients. The assay can be described thus: heparin versus PPS in the intravesical therapeutic solution (preliminary data). It counts as in vivo, human. The source says:
Data from preliminary studies for one embodiment of an intravesical therapeutic solution can provide immediate temporary relief of the symptoms of urgency and pain in IC patients [Dell and Parsons, Abstract presented at NIDDK/Interstitial Cystitis Association Symposium, Research Insights into Interstitial Cystitis, Alexandria, Va., (Oct. 30-Nov. 1, 2003); Davis, et al. Abstract presented at NIDDK/Interstitial Cystitis Association Symposium, Research Insights into Interstitial Cystitis, Alexandria, Va. (Oct. 30-Nov. 1, 2003); Parsons, Contemp Urol 15: 22-24, 27-28, 31-32, 35 (2003)]. One of the methods of the present invention combines heparin and lidocaine buffered with sodium bicarbonate to pH >8.0 via direct catheter delivery to the bladder, providing immediate and long term pain relief for chronic IC sufferers. In some embodiments, the solution contains 10,000-40,000 units of heparin. In some embodiments, heparin is replaced by 100-200 mg PPS (the contents of an oral capsule dissolved in 10 mL buffered normal saline), 10 mL 1% lidocaine or 16 mL 2% lidocaine, and 3 mL 8.4% sodium bicarbonate (w/v). The solution is instilled into the empty bladder and retained for approximately 30 minutes. The principal difference between this therapeutic solution and other such solutions is the presence of sodium bicarbonate, which dramatically increases the absorption of the lidocaine. […]

The test system of another assay is IC. To be noted: oral PPS, after 8 to 12 months of therapy; cited from earlier work.

Turning to `C[S+](C)[O-]` [DMSO, dimethylsulfoxide], the “IC patients treated who benefit” value in the assay with IC patients [1] is reported as “approximately 50%”.

Take heparin: the “efficacy in the therapeutic solution, heparin compared with PPS” value in the assay with IC patients [2] is “equal efficacy”.

As for pentosan polysulfate sodium [PPS], the “efficacy in the therapeutic solution, heparin compared with PPS” value in the assay with IC patients [2] is reported as “equal efficacy”. The response rate entry in the assay on IC is reported as “approximately 70%”.

The record behind these values is patent US9486474B2, “Interstitial therapy for immediate symptom relief and chronic therapy in interstitial cystitis” (THE REGENTS OF THE UNIVERSITY OF CALIFORNIA, priority 2004, dated 2016).
